Results reported in US8288410B2, “3-substituted quinolinium and 7H-indolo[2,3-c]quinolinium salts as new antiinfectives” (Florida Agricultural and Mechanical University, priority 2008, dated 2012).
Like-named read-outs stand apart in the source and are kept apart here.

What was measured:
[1] = test system: Cryptococcus neoformans ATCC 90113; assay: Antifungal susceptibility testing, Cryptococcus neoformans; assay type: cell-based
Protocol: (§1) Using standard susceptibility tests, the compounds of the invention were determined to be active against MRSA, C. neoformans and several other bacteria, fungi and protozoa. More specifically, the antibacterial and antifungal testing was carried out in the following manner. Cryptococcus neoformans ATCC 90113 and MRSA were obtained from the American Type Culture Collection (Manassas. Va.). Several others including Candida albicans ATTC 90028, Aspergillus fumigatus ATCC 90906 and Mycobacterium intracellulare (M. intracellulare) ATCC 23086 were also procured. Susceptibility testing was performed using a modified version of the National Committee for Clinical Laboratory Standards method. M. intracellulare was tested using a modified method of Franzblau, et al., J. Clin. Microbiol., 1998, 36, 362-366. DMSO solutions of samples were serially diluted in saline, and transferred in duplicate to 96 well microplates. Microbial suspensions were diluted in the broth to afford desired colony forming units/mL according to the 0.5 McFarland Standard [C. Albicans: either Saboraud Dextrose broth (SDB) or RPMI 1640, C. neoformans: SDB, A fumigatus: either YM broth (for MICS) or RPMI-1640+5% Alamar Blue.] After adding microbial cultures to the sampled afforded a final volume of 200 μL and final test concentration starting with 20 μg/mL, plates were read prior to and after final incubation using either fluorescence at 544ex/590em (M intracellulare, A. fumigatus) using the Polarstar galaxy reader (Biotek Instruments, Vermont). Growth (saline only), solvent and blank (media only) controls were included on each test plate. Drug controls [Ciprofloxacin (ICN Biomedicals, Ohio) for bacteria and Amphotericin B (ICN Biomedicals, Ohio) for fungi] were included in each assay. Percent growth was calculated and plotted versus test concentration to afford IC50 (sample concentration that affords 50% inhibition or growth of the organism). The minimum inhibitory concentration (MIC) was determined by visually inspecting the plate, and is defined as the lowest test concentration that allows no detectable growth (for Almar Blue assays, no color change from blue to pink).

[2] = test system: Aspergillus fumigatus ATCC 90906; assay: Antifungal susceptibility testing, Aspergillus fumigatus; assay type: cell-based
Protocol: as §1

MRSA = assay: Antibacterial susceptibility testing, MRSA; assay type: cell-based, methicillin resistant Staphylococcus aureus; conditions: for MRSA IC50 / MRSA MFC / MRSA MIC: Table 2; for MRS IC50 / MRS MFC / MRS MIC: Table 1
Protocol: as §1

[3] = test system: Candida albicans ATTC 90028; assay: Antifungal susceptibility testing, Candida albicans; assay type: cell-based
Protocol: as §1

C[n+]1cc(Nc2ccccc2Cl)cc2ccccc21.[I-] [JRE-2-42-1]
— ((-) = >20 μg/mL): Cn IC50 ([1]; Table 2) | Cn MFC ([1]; Table 2) | Cn MIC ([1]; Table 2) | A fu IC50 ([2]; Table 2, Aspergillus fumigatus) | MRSA IC50 (MRSA) | MRSA MFC (MRSA) | MRSA MIC (MRSA) | Ca IC50 ([3]; Table 2) | Ca MFC ([3]; Table 2) | Ca MIC ([3]; Table 2)

C[n+]1cc(Nc2cccc(Cl)c2)cc2ccccc21.[I-] [JRE-2-81-1]
— ((-) = >20 μg/mL): Cn IC50 ([1]; Table 2) | Cn MFC ([1]; Table 2) | Cn MIC ([1]; Table 2) | A fu IC50 ([2]; Table 2, Aspergillus fumigatus) | MRSA IC50 (MRSA) | MRSA MFC (MRSA) | MRSA MIC (MRSA) | Ca IC50 ([3]; Table 2) | Ca MFC ([3]; Table 2) | Ca MIC ([3]; Table 2)

c1ccc(Nc2cc3ccccc3[n+](CCCCCC3CCCCC3)c2)cc1 [JRE-3-19-1]
6.3 µg/mL: MFC ([1]; ATCC90113, Table 2, read-out: Cn MFC) | MFC (MRSA; Staphylococcus aureus, Table 2, read-out: MRSA MFC)
13 µg/mL: MFC ([3]; ATTC90028, Table 2, read-out: Ca MFC)
1.6 µg/mL: A fu MIC [2] | MIC (MRSA; Staphylococcus aureus, Table 2, read-out: MRSA MIC)
0.85 µg/mL: IC50 (MRSA; Staphylococcus aureus, Table 2, read-out: MRSA IC50)
3.1 µg/mL: MIC ([3]; ATTC90028, Table 2, read-out: Ca MIC)
1 µg/mL: IC50 ([2]; ATCC90906, Table 2, Aspergillus fumigatus, read-out: A fu IC50) | IC50 ([3]; ATTC90028, Table 2, read-out: Ca IC50)
0.78 µg/mL: MIC ([1]; ATCC90113, Table 2, read-out: Cn MIC)
25 µg/mL: A fu MFC [2]
0.55 µg/mL: IC50 ([1]; ATCC90113, Table 2, read-out: Cn IC50)

COc1ccc(Nc2cc3ccccc3[n+](CCCCCC3CCCCC3)c2)cc1.[I-] [JRE-3-45-1]
— ((-) = >20 μg/mL): Cn IC50 ([1]; Table 2) | Cn MFC ([1]; Table 2) | Cn MIC ([1]; Table 2) | A fu IC50 ([2]; Table 2, Aspergillus fumigatus) | MRSA IC50 (MRSA) | MRSA MFC (MRSA) | MRSA MIC (MRSA) | Ca IC50 ([3]; Table 2) | Ca MFC ([3]; Table 2) | Ca MIC ([3]; Table 2)

C[n+]1cc(Sc2ccccc2)cc2ccccc21.[I-] [XYZ-III-53]
— ((-) = >20 μg/mL): Cn IC50 ([1]; Table 1) | Cn MFC ([1]; Table 1) | Cn MIC ([1]; Table 1) | A fu IC50 ([2]; Table 1, Aspergillus fumigatus) | A fu MFC ([2]; Table 1, Aspergillus fumigatus) | A fu MIC ([2]; Table 1, Aspergillus fumigatus) | MRS IC50 (MRSA) | MRS MFC (MRSA) | MRS MIC (MRSA) | Ca IC50 ([3]; Table 1) | Ca MFC ([3]; Table 1) | Ca MIC ([3]; Table 1)

[I-].c1ccc(CCCCC[n+]2cc(Sc3ccccc3)cc3ccccc32)cc1 [XYZ-III-54]
1.0 µg/mL: MRS IC50 (MRSA)
10 µg/mL: Cn MFC ([1]; Table 1) | MRS MFC (MRSA) | Ca MIC ([3]; Table 1)
— ((-) = >20 μg/mL): A fu MFC ([2]; Table 1, Aspergillus fumigatus) | Ca MFC ([3]; Table 1)
2.5 µg/mL: MRS MIC (MRSA)
5.5 µg/mL: Ca IC50 ([3]; Table 1)
5.0 µg/mL: Cn MIC ([1]; Table 1)
1.3 µg/mL: A fu IC50 ([2]; Table 1, Aspergillus fumigatus)

C[n+]1cc(Sc2ccc(F)cc2)cc2ccccc21.[I-] [XYZ-III-62]
— ((-) = >20 μg/mL): Cn IC50 ([1]; Table 1) | Cn MFC ([1]; Table 1) | Cn MIC ([1]; Table 1) | A fu IC50 ([2]; Table 1, Aspergillus fumigatus) | A fu MFC ([2]; Table 1, Aspergillus fumigatus) | A fu MIC ([2]; Table 1, Aspergillus fumigatus) | MRS IC50 (MRSA) | MRS MFC (MRSA) | MRS MIC (MRSA) | Ca IC50 ([3]; Table 1) | Ca MFC ([3]; Table 1) | Ca MIC ([3]; Table 1)

Fc1ccc(Sc2cc3ccccc3[n+](CCCCCc3ccccc3)c2)cc1.[I-] [XYZ-III-63]
7.0 µg/mL: Cn IC50 ([1]; Table 1)
20 µg/mL: Ca IC50 ([3]; Table 1)
10 µg/mL: MRS MIC (MRSA)
5.5 µg/mL: MRS IC50 (MRSA)
— ((-) = >20 μg/mL): Cn MFC ([1]; Table 1) | Cn MIC ([1]; Table 1) | A fu MFC ([2]; Table 1, Aspergillus fumigatus) | MRS MFC (MRSA) | Ca MFC ([3]; Table 1) | Ca MIC ([3]; Table 1)
